From patent US20240368566A1, “PYK2-DERIVED PEPTIDES FOR INHIBITING INVADOPODIA-MEDIATED CANCER METASTASIS” (BAR-ILAN UNIVERSITY, priority 2023, published 2024)

What was measured:
cortactin SH3 domain = target: T1, cortactin SH3 domain (Mus musculus, UniProt Q60598); assay: NMR affinity determination, binding of peptides to purified cortactin-SH3; conditions: binding to cortactin SH3 in vitro
T1 construct: nucleotides1468-1641); 6xHis (N, cleaved yes); made in house; host or cells: E. coli BL21 (DE3)
Method: The DNA sequence encoding the SH3 domain of the mouse cortactin SH3 domain (GenBank ID U03184; nucleotides1468-1641) was sub-cloned into a pET-28a plasmid (Novagen, Merck) in frame with the cleavable N-terminal 6×His tag. Isotopically labeled cortactin-SH3 for heteronuclear NMR experiments was expressed in transformed E. coli BL21 cells (DE3) grown in the presence of kanamycin (50 mg/1) and chloramphenicol (34 mg/1) at 37° C. in M9 minimal medium. For ^15N (^13C) labeling the medium contained 1 g/L of ^15NH4Cl (4 g/L ^13C6-glucose), and 0.25 g/l of appropriately labeled Celtone Base Powder (Cambridge Isotope Laboratories, Andover, MA) was added. For triple-labeled ^2H,^13C,^15N—SH3, expression began in 100 ml of the above medium grown to an OD600 of 0.4-0.5 and gently centrifuged. Pellets were then resuspended in 500 ml filter-sterilized D20-based ^15N-M9 supplemented with ^2H7-^13C6-glucose (2 g/1) and DCN-Isogro (0.25 g/1) to reach a final OD600 of −0.1. In both cases cells were then grown at 37° C. and induced with 0.5 mM isopropyl β-D-1-thiogalactopyranoside (IPTG) upon reaching OD600-0.8, followed by overnight growth at 27° C. To purify the SH3 domain, cells were harvested by centrifugation, subjected to a single freeze-thaw cycle, and resuspended in lysis buffer (50 mM NaPi pH 8.0, 300 mM NaCl, 1 mM dithiothreitol (DTT), 100 ml per liter of culture) supplemented with 1 tablet EDTA-free protease inhibitor cocktail (Merck) and benzamidine (5 mM). Cells were lysed by French press, followed by addition of benzamidine (final concentration 10 mM) and phenylmethylsulfonyl fluoride (PMSF, 1 mM), and the lysate was clarified by centrifugation. The supernatant was loaded on a HisTrap HP column (GE Healthcare, Chicago, IL, USA) equilibrated with lysis buffer and the protein eluted through a gradient (Buffer B: 50 mM NaPi pH 8.0, 100 mM NaCl, 300 mM imidazole, 1 mM DTT). To the fraction eluting at ˜40% B purified tobacco etch virus (TEV) protease (1:30 mol:mol) was added, and the mixture dialyzed overnight at 4° C. against dialysis buffer (50 mM NaPi at pH 8.0, 100 mM NaCl, 1 mM DTT). The dialysate was brought to a final concentration of ˜5 mM imidazole, filtered, and loaded onto a HisTrap column. The collected flowthrough was dialyzed against 20 mM Tris (pH 7.5), 1 mM DTT for 3 h to reach a final concentration of 10 mM NaCl. […]
Purified SH3 was dialyzed against NMR sample buffer (30 mM NaPi, pH ˜6.5) and concentrated to the desired concentration in an Amicon concentration tube (3 kDa MWCO) (Merck). […] For quantitative titrations, purchased peptides were dissolved in 100-300 μl NMR sample buffer, and samples at varying (SH3:PRR2 1:0-1:6, SH3 concentration constant at 0.1 mM) ratios were prepared. Fittings were performed with 5-6 measured points. […]

MDA-MB-231 cells = assay: Barbed end formation assay; format: cell-based, human; conditions: EGF stimulation; all concentrations
Method: The barbed end assay was performed using biotin-conjugated actin as described in Genna et al., 2018 (supra). In brief, 24 h before each experiment, cells were plated on fibronectin/gelatin unlabeled matrix in the presence of Pyk2-PRR or control peptides at 0.1, 1, or 5 μM concentration and allowed to attach for 8 h. Cells were starved for 16 h in the presence of the peptides and then stimulated with 2.5 nM EGF and permeabilized with a permeabilization buffer (20 mM Hepes, pH 7.5, 138 mM KCl, 4 mM MgCl2, 3 mM EGTA, 0.2 mg/ml saponin, 1 mM ATP, and 1% BSA) containing 0.4 μM biotin-conjugated muscle actin (AB07) (Cytoskeleton Inc., Denver, CO, USA) for 1 min at 37° C. Cells were fixed in 3.7% paraformaldehyde for 5 min, blocked in PBS containing 1% FBS, 1% BSA, and 3 μM un-labeled phalloidin (Molecular Probes, P3457), then labeled with FITC anti-biotin (200-092-211) (Jackson ImmunoResearch Laboratories, West Grove, PA, USA) to visualize barbed ends, and with rhodamine-phalloidin (R415) (Molecular Probes, Eugene, OR, USA) and Arp2 to identify regions of cells rich in invadopodia. The barbed end intensity at invadopodia-rich regions was quantified by measuring mgv at invadopodia-rich areas minus mgv of the background. Data were normalized to the control condition for each experiment.

T1 sequence (Q60598 490-546): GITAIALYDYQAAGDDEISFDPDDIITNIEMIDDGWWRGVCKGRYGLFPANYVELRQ

## C[C@H](NC(=O)[C@@H](N)[C@@H](C)O)C(=O)N[C@@H](Cc1ccccc1)C(=O)N[C@@H](CCC(N)=O)C(=O)N[C@@H](CCC(=O)O)C(=O)N1CCC[C@H]1C(=O)N1CCC[C@H]1C(=O)N1CCC[C@H]1C(=O)N[C@@H](CCCCN)C(=O)N1CCC[C@H]1C(=O)N[C@@H](CO)C(=O)N[C@@H](CCCNC(=N)N)C(=O)N1CCC[C@H]1C(=O)N[C@@H](CCCCN)C(=O)N[C@@H](Cc1ccc(O)cc1)C(=O)N[C@@H](CCCNC(=N)N)C(=O)N1CCC[C@H]1C(=O)N1CCC[C@H]1C(=O)N1CCC[C@H]1C(=O)O [Pyk2-PRR2, TAFQEPPPKPSRPKYRPPP]
Cortactin SH3 domain
  higher affinity than Pyk2-PRR3: 16 fold
MDA-MB-231 cells
  generation of free actin barbed ends at invadopodia: completely disrupted
